This assay deals with T1, BRM (Homo sapiens, UniProt P51531).
T1 construct: In-Cell Western Screen of BRM Degradation in SW1573 Cells; endogenous in cells; host or cells: SW1573
The assay is described as follows: In-cell Western screen of BRM degradation in SW1573 cells (Dmax and DC50). It is filed as cell-based. The essentials:
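SW1573, overnight cpd exposure (18-20 h), 0.1% DMSO final. PFA fix, 0.5% Triton permeabilization, block; IR secondaries at 800/680 nm. Odyssey read → Dmax, DC50.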

Where [1] appears, read: BRM degradation, SW1573 cells, read-out: DC50.
[2] abbreviates: BRM degradation, SW1573 cells, tested at the top concentration of between 0.3 and 10 μM, read-out: Dmax (%) (% degraded).
[3] abbreviates: BRM degradation, SW1573 cells, Table 2D, read-out: **Dmax (%) (% degraded).
The mark [4] stands for this setting: BRM degradation, SW1573 cells, Table 2D, read-out: *DC50.

Like-named read-outs stand apart in the source and are kept apart here.

T1 sequence (P51531 whole entry): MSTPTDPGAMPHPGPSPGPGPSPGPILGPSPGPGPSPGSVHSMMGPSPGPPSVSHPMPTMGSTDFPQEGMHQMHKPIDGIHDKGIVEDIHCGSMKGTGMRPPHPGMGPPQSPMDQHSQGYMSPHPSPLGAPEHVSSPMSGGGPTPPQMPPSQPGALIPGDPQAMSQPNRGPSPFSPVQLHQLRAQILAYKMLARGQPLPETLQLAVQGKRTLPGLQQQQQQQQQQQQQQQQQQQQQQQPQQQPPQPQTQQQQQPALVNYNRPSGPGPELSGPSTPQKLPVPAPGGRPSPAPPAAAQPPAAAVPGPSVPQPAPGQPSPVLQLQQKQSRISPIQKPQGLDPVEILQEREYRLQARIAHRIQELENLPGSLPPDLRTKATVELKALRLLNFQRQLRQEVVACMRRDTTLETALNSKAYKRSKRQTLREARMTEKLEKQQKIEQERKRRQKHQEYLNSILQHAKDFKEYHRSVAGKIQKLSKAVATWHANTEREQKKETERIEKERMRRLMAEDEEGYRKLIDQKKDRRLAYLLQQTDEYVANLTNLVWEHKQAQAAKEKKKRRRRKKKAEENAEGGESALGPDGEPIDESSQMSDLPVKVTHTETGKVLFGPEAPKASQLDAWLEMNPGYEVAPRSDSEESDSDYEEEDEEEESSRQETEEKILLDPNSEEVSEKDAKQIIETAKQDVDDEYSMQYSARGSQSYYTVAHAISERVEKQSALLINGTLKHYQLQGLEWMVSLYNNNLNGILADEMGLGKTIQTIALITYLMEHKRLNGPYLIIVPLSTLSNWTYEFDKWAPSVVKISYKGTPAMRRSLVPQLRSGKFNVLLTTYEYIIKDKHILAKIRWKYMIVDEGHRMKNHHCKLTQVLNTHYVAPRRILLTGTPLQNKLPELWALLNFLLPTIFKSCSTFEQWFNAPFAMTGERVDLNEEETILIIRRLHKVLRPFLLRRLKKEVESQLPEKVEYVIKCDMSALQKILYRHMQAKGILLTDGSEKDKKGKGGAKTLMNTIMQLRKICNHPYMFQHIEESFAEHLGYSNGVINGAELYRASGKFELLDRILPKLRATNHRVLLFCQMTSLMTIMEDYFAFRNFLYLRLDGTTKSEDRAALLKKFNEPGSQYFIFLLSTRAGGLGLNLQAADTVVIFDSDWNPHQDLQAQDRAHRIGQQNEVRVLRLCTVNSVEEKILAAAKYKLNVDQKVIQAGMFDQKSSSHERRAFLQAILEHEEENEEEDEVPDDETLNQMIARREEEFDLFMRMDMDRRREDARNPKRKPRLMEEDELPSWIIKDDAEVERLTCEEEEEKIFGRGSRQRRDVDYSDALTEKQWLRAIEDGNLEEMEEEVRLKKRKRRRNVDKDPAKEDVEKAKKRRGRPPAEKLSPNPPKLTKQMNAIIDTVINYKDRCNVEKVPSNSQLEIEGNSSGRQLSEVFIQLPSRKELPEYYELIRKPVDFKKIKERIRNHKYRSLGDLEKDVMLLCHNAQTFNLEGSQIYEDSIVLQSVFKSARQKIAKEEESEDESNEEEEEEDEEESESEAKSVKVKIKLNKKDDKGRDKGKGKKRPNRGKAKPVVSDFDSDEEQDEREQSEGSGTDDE

As usually defined, the DC50 is the concentration giving 50% degradation. For orientation: Dmax means the greatest extent of degradation seen. As for `CCOC[C@H](NC(=O)[C@@H]1C[C@@H](O)CN1C(=O)[C@H](c1cc(OCCN2CCN(CCOc3cc(N4C5CCC4CN(c4cc(-c6ccccc6O)nnc4N)C5)ccn3)CC2)no1)C(C)C)c1ccc(-c2scnc2C)cc1` [compound 257, (2S,4R)-1-((2S)-2-(3-(2-(4-(2-((4-(3-(3-amino-6-(2-hydroxyphenyl)pyridazin-4-yl)-3,8-diazabicyclo[3.2.1]octan-8-yl)pyridin-2-yl)oxy)ethyl)piperazin-1-yl)ethoxy)isoxazol-5-yl)-3-methylbutanoyl)-N-((R)-2-ethoxy-1-(4-(4-methylthiazol-5-yl)phenyl)ethyl)-4-hydroxypyrrolidine-2-carboxamide], the DC50 under setting [1] fell in the range of 2.5 to 10 nM. The Dmax under setting [2] is over 75%.

With `Cc1ncsc1-c1ccc([C@H](C)NC(=O)[C@@H]2C[C@@H](O)CN2C(=O)[C@@H](c2cc(N3CCC(CN4CCC(O[C@H]5C[C@@H](CN6CCC(C(C)n7cc(-c8cc(-c9ccccc9O)nnc8N)cn7)CC6)C5)CC4)CC3)no2)C(C)C)cc1` (stereo partly drawn) [compound 664, (2S,4R)-1-((2R)-2-(3-(4-((4-((1s,3s)-3-((4-(1-(4-(3-amino-6-(2-hydroxyphenyl)pyridazin-4-yl)-1H-pyrazol-1-yl)ethyl)piperidin-1-yl)methyl)cyclobutoxy)piperidin-1-yl)methyl)piperidin-1-yl)isoxazol-5-yl)-3-methylbutanoyl)-4-hydroxy-N-((S)-1-(4-(4-methylthiazol-5-yl)phenyl)ethyl)pyrrolidine-2-carboxamide], under setting [1], the half-maximal degradation concentration (DC50) is under 2.5 nM. Under “BRM degradation, SW1573 cells, read-out: Dmax (% degraded)”, the Dmax was over 75%.

`Cc1ncsc1-c1ccc([C@H](C)NC(=O)[C@@H]2C[C@@H](O)CN2C(=O)[C@@H](c2cc(N3CCC4(CC3)CN(C[C@H]3C[C@H](Oc5cc(N6C7CCC6CN(c6cc(-c8ccccc8O)nnc6N)C7)ccn5)C3)CCO4)no2)C(C)C)cc1` [compound 624, (2S,4R)-1-((2R)-2-(3-(4-(((1r,3R)-3-((4-(3-(3-amino-6-(2-hydroxyphenyl)pyridazin-4-yl)-3,8-diazabicyclo[3.2.1]octan-8-yl)pyridin-2-yl)oxy)cyclobutyl)methyl)-1-oxa-4,9-diazaspiro[5.5]undecan-9-yl)isoxazol-5-yl)-3-methylbutanoyl)-4-hydroxy-N-((S)-1-(4-(4-methylthiazol-5-yl)phenyl)ethyl)pyrrolidine-2-carboxamide]: under setting [3], the Dmax is over 75%. Besides, the DC50 under setting [4] was under 2.5 nM.

Consider `CC(C)[C@@H](C(=O)N1C[C@H](O)C[C@H]1C(=O)N[C@@H](C)c1ccc(-c2ccnn2C)cc1)c1cc(N2CCC(CN3CCC(O[C@H]4C[C@H](Oc5cc(N6C7CCC6CN(c6cc(-c8ccccc8O)nnc6N)C7)ccn5)C4)CC3)CC2)no1` [compound 622, (2S,4R)-1-((2R)-2-(3-(4-((4-((1r,3r)-3-((4-(3-(3-amino-6-(2-hydroxyphenyl)pyridazin-4-yl)-3,8-diazabicyclo[3.2.1]octan-8-yl)pyridin-2-yl)oxy)cyclobutoxy)piperidin-1-yl)methyl)piperidin-1-yl)isoxazol-5-yl)-3-methylbutanoyl)-4-hydroxy-N-((S)-1-(4-(1-methyl-1H-pyrazol-5-yl)phenyl)ethyl)pyrrolidine-2-carboxamide], for which the Dmax under setting [3] is over 75%. In addition, the half-maximal degradation concentration (DC50) under setting [4] is under 2.5 nM.

For the molecule `Cc1ncsc1-c1ccc([C@H](C)NC(=O)[C@@H]2C[C@@H](O)CN2C(=O)C(c2cc(OCCN3CCN(CCO[C@H]4C[C@H](OCCN5CCOC6(CCN(c7cc(-c8ccccc8O)nnc7N)CC6)C5)C4)CC3)no2)C(C)C)cc1` (stereo partly drawn) [compound 192, (2S,4R)-1-(2-(3-(2-(4-(2-((1r,3r)-3-(2-(9-(3-amino-6-(2-hydroxyphenyl)pyridazin-4-yl)-1-oxa-4,9-diazaspiro[5.5]undecan-4-yl)ethoxy)cyclobutoxy)ethyl)piperazin-1-yl)ethoxy)isoxazol-5-yl)-3-methylbutanoyl)-4-hydroxy-N-((S)-1-(4-(4-methylthiazol-5-yl)phenyl)ethyl)pyrrolidine-2-carboxamide], the DC50 under setting [1] was under 2.5 nM. Moreover, under setting [2], the Dmax was over 75%.

Consider `Cc1ncsc1-c1ccc([C@H](C)NC(=O)[C@@H]2C[C@@H](O)CN2C(=O)[C@H](c2cc(N3CCC4(CCCN(C[C@H]5C[C@H](Oc6cc(N7C8CCC7CN(c7cc(-c9ccccc9O)nnc7N)C8)ccn6)C5)C4)CC3)no2)C(C)C)cc1` [compound 659, (2S,4R)-1-((2S)-2-(3-(2-(((1r,3S)-3-((4-(3-(3-amino-6-(2-hydroxyphenyl)pyridazin-4-yl)-3,8-diazabicyclo[3.2.1]octan-8-yl)pyridin-2-yl)oxy)cyclobutyl)methyl)-2,9-diazaspiro[5.5]undecan-9-yl)isoxazol-5-yl)-3-methylbutanoyl)-4-hydroxy-N-((S)-1-(4-(4-methylthiazol-5-yl)phenyl)ethyl)pyrrolidine-2-carboxamide], for which the DC50 under setting [1] is over 30 nM.

In the case of `Cc1ncsc1-c1ccc([C@H](C)NC(=O)[C@@H]2C[C@@H](O)CN2C(=O)[C@@H](c2cc(N3CCC(CN4CCC(OC5CC(Oc6cc(N7C8CC[C@@H]7CN(c7cc(-c9ccccc9O)nnc7N)C8)ccn6)C5)CC4)CC3)no2)C(C)C)cc1O` (stereo partly drawn) [compound 691, (2S,4R)-1-((2R)-2-(3-(4-((4-((1r,3r)-3-((4-(3-(3-amino-6-(2-hydroxyphenyl)pyridazin-4-yl)-3,8-diazabicyclo[3.2.1]octan-8-yl)pyridin-2-yl)oxy)cyclobutoxy)piperidin-1-yl)methyl)piperidin-1-yl)isoxazol-5-yl)-3-methylbutanoyl)-4-hydroxy-N-((S)-1-(3-hydroxy-4-(4-methylthiazol-5-yl)phenyl)ethyl)pyrrolidine-2-carboxamide], the “Dmax (% degraded)” value (BRM degradation, SW1573 cells) is on record as “A (A > 75)”. The DC50 under setting [1] was under 2.5 nM.

In the case of `Cc1ncsc1-c1ccc([C@H](C)NC(=O)[C@@H]2C[C@@H](O)CN2C(=O)[C@H](c2cc(OCC[C@H]3CCN(C[C@H]4C[C@H](Oc5cc(N6C7CCC6CN(c6cc(-c8ccccc8O)nnc6N)C7)ccn5)C4)[C@@H](C)C3)no2)C(C)C)cc1` (racemic) [compound 547, (2S,4R)-1-((2S)-2-(3-(2-((2S,4S)-1-(((1r,3S)-3-((4-(3-(3-amino-6-(2-hydroxyphenyl)pyridazin-4-yl)-3,8-diazabicyclo[3.2.1]octan-8-yl)pyridin-2-yl)oxy)cyclobutyl)methyl)-2-methylpiperidin-4-yl)ethoxy)isoxazol-5-yl)-3-methylbutanoyl)-4-hydroxy-N-((S)-1-(4-(4-methylthiazol-5-yl)phenyl)ethyl)pyrrolidine-2-carboxamide], the DC50 under setting [4] was over 30 nM.

With `Cc1ncsc1-c1ccc([C@H](C)NC(=O)[C@@H]2C[C@@H](O)CN2C(=O)[C@@H](c2cc(OCCN3CCC(O[C@H]4C[C@H](Oc5cc(N6C7CCC6CN(c6cc(-c8ccccc8O)nnc6N)C7)ccn5)C4)CC3)no2)C(C)C)nc1` [compound 368, (2S,4R)-1-((2R)-2-(3-(2-(4-((1r,3R)-3-((4-(3-(3-amino-6-(2-hydroxyphenyl)pyridazin-4-yl)-3,8-diazabicyclo[3.2.1]octan-8-yl)pyridin-2-yl)oxy)cyclobutoxy)piperidin-1-yl)ethoxy)isoxazol-5-yl)-3-methylbutanoyl)-4-hydroxy-N-((S)-1-(5-(4-methylthiazol-5-yl)pyridin-2-yl)ethyl)pyrrolidine-2-carboxamide], for the setting “SW1573, % degraded, when tested at the top concentration of between 0.3 and 10 μM, read-out: BRM Dmax (%)”, the Dmax is over 75%. Also, the DC50 (target protein degradation, read-out: BRM DC50) was under 2.5 nM.

For the origin of these results see US12539292B2, “BRM targeting compounds and associated methods of use” (Arvinas Operations, Inc., priority 2018, dated 2026).
